The source of these data is patent US10525139B2, “Folate-conjugated molecules for delivery of toxic small molecule inhibitors to cancer cells and methods of use” (priority 2014, dated 2020).

“Also recorded” adds a separate entry of the source.

The nature of series [1]: LCMS analysis of cell lysate and media. The class given is in vitro ADME. As to conditions: 24 h treatment with FT. As to the method:
In order to validate the delivery of the Thap-OH, LCMS analysis of the cell lysate and the media was used to detect the presence of both Folate-Thap (FT) and Thap-OH. […] To directly visualize the folate delivery of a small molecule, folic acid derivatives with appended fluorophores were designed. Both Folate-FITC, suitable for flow cytometry studies, and Folate-TMARA, suitable for high-throughput fluorescence plate readers, were evaluated in vitro to determine the delivery mechanism.

For a further series, the system named is T-ALL cell lines. Nature of the series: T-ALL cell viability / growth (ATP content, Cell-Titer Glo). The class given is cell-based, human.
The subject of a further series is panel of cell lines. The experiment in a line: Apoptosis luminescence assay (Caspase) in a panel of cell lines. The note with it: 384-well plates, 72 hours. In kind it is cell-based. The procedure: Cells were grown in 384-well plates and treated for 72 hours with the indicated dose of Folate-Thap. Apoptosis was measured using a luminescence assay developed by Promega.

Series [2] concerns murine NOTCH1 L1601P ΔPEST expressing leukemia lymphoblasts. The experiment in a line: Ex vivo treatment of murine NOTCH1 L1601P ΔPEST leukemia lymphoblasts. The class given is cell-based, mouse. As to the method:
Viability data is represented as percentage relative to vehicle treatment and errors bars denote mean±SD of 3 replicates. Statistical significance of treated vs. vehicle (DMSO) samples (***P≤0.01; ***P≤0.001) was determined by one-way ANOVA with Bonferroni's correction for multiple comparison testing. […] The immunoblot contains cell lysates stained with anti-ICN1 antibody (Val1744) after treatment with the 10 μM of JQ-FT for 24 hours in vitro. GAPDH was used as a loading control ICN1 loss was quantified and bar graph (panel e) corresponds to the results of the quantification of three independent experiments. Statistical significance of treated vs. vehicle (DMSO) samples (*P≤0.05) was determined by Student's t-test. Expression of indicated NOTCH1 target genes HesI (panel d) and Dtx1 (panel e) in murine NOTCH1 L1601P ΔPEST expressing leukemia lymphoblasts treated with 10 μM JQ-FT for 24 hours was determined by qRT-PCR. Error bars indicate the mean±SD of 3 replicates. Data were analyzed using the ΔΔCT method and plotted as a percentage relative to the control gene Gapdh. Statistical significance for treated vs. vehicle (DMSO) (*P≤0.05) was determined by Student's t-test. […] The spleen and the liver of all mice were examined; representative results for one control animal and one JQ-FT-treated animal are shown. Formalin-fixed, paraffin-embedded tissue sections were stained using the hematoxylin and eosin stain (H & E) method. […] Anti-leukemic activity of JQ-FT was assessed by measuring spleen weight upon 5 days of JQ-FT treatment (60 mg/kg I.P) or vehicle (65% D5W+30% PEG-400+5% Tween-80only). […] Statistical significance for treated vs. vehicle (*P≤0.05) was determined by non-parametric t-test (Mann-Whitney). […] Statistical significance for treated vs. vehicle (*P≤0.05) was determined by non-parametric t-test (Mann-Whitney). […] ICN1 loss was quantified and bar graph (j) corresponds to the results of the quantification. Statistical significance for treated vs. vehicle (*P≤0.05) was determined by Student's t-test. […]

The subject of the next series is NOTCH1. The experiment in a line: NOTCH1 processing and activation by western blot (FL-N1, TM-N1, ICN1). The class given is cell-based, human. The note with it: 24 h. An excerpt: We previously described that the SERCA inhibitors thapsigargin and cyclopiazonic acid impair NOTCH1 maturation leading to an accumulation of full-length, unprocessed polypeptides in the endoplasmic reticulum/Golgi subcellular compartment. An immediate consequence of SERCA inhibition is a decrement in NOTCH1 protein display on the surface of T-ALL cells. […] To further support the hypothesis that Thap-OH impairs mutant NOTCH1 maturation, we evaluated levels of full-length, transmembrane and activated NOTCH1 (ICN1) by WB. Lysates from T-ALL cell lines treated with 1 μM Thap-OH were immunoblotted with an antibody specific for the cytoplasmic portion of NOTCH1 that recognizes both unprocessed NOTCH1 (FL-N1) (˜270 kDa) and the furin-processed transmembrane subunit (TM-N1) (˜110 kDa).
Both Folate-Thap (JQ-FT) and Thap-OH were tested in T-ALL cell lines with 24 h treatment. […] Lysates were prepared after treatment with indicated doses of thapsigargin, JQ-FT or Thap-OH for 24 hr. The blot shown was stained with an antibody against the C-terminus of NOTCH1 that recognizes both the furin-processed NOTCH1 transmembrane subunit (TM) and the unprocessed NOTCH1 precursor (FL) (FIG. 2A). GAPDH was used as a loading control. Western blots were stained with antibodies specific for γ-secretase-cleaved NOTCH 1 ([…], Cell Signaling, Beverly, Mass., USA), or the C-terminus of NOTCH1 (SC-6014 (C-20) Santa Cruz Biotechnology, Santa Cruz, Calif., USA). Control stains were carried out with antibodies specific for GAPDH (137179, Santa Cruz Biotechnology). Blots were developed with anti-rabbit-HRP (NA9340V, Amersham, Pittsburgh, Pa., USA) or anti-mouse-HRP (NA9340V or NA9310V, Amersham). Staining was quantified using ImageQuant TI V 7.0 (GE Health Care, Piscataway, N.J., USA).
(In general: In western blotting, separated proteins are transferred to a membrane and probed.)

Series [3] relates to NOTCH1 L1601P ΔPEST T-ALL. The experiment in a line: Syngeneic T-ALL mouse model carrying NOTCH1 L1601P ΔPEST. In kind it is in vivo. The procedure:
Viability data is represented as percentage relative to vehicle treatment and errors bars denote mean±SD of 3 replicates. Statistical significance of treated vs. vehicle (DMSO) samples (***P≤0.01; ***P≤0.001) was determined by one-way ANOVA with Bonferroni's correction for multiple comparison testing. […] The immunoblot contains cell lysates stained with anti-ICN1 antibody (Val1744) after treatment with the 10 μM of JQ-FT for 24 hours in vitro. GAPDH was used as a loading control ICN1 loss was quantified and bar graph (panel e) corresponds to the results of the quantification of three independent experiments. Statistical significance of treated vs. vehicle (DMSO) samples (*P≤0.05) was determined by Student's t-test. Expression of indicated NOTCH1 target genes HesI (panel d) and Dtx1 (panel e) in murine NOTCH1 L1601P ΔPEST expressing leukemia lymphoblasts treated with 10 μM JQ-FT for 24 hours was determined by qRT-PCR. Error bars indicate the mean±SD of 3 replicates. Data were analyzed using the ΔΔCT method and plotted as a percentage relative to the control gene Gapdh. Statistical significance for treated vs. vehicle (DMSO) (*P≤0.05) was determined by Student's t-test. […] The spleen and the liver of all mice were examined; representative results for one control animal and one JQ-FT-treated animal are shown. Formalin-fixed, paraffin-embedded tissue sections were stained using the hematoxylin and eosin stain (H & E) method. […] Anti-leukemic activity of JQ-FT was assessed by measuring spleen weight upon 5 days of JQ-FT treatment (60 mg/kg I.P) or vehicle (65% D5W+30% PEG-400+5% Tween-80only). […] Statistical significance for treated vs. vehicle (*P≤0.05) was determined by non-parametric t-test (Mann-Whitney). […] Error bars indicate mean±SD of 4 replicates (of the 4 animals of each group). Statistical significance for treated vs. vehicle (*P≤0.05) was determined by non-parametric t-test (Mann-Whitney). […] The immunoblot contains splenic cell lysates stained with anti-ICN1 antibody (Val1744) after treatment with the 60 mg/Kg of JQ-FT for 5 days. GAPDH was used as a loading control. ICN1 loss was quantified and bar graph (j) corresponds to the results of the quantification. Statistical significance for treated vs. vehicle (*P≤0.05) was determined by Student's t-test.
In vitro studies provide valuable mechanistic insights but may not recapitulate tumor micro-environment and metabolic conditions in vivo. Indeed, a significant limitation of research on folate-conjugate drugs is the inconsistency between free folate concentrations (and other middle metabolites) in culture conditions in vitro versus in vivo. High levels of free folic acid in the sera may block the binding and uptake of JQ-FT in FR2-positive T-ALL compromising the anti-NOTCH1 leukemia effect observed in vitro. To explore the therapeutic efficacy of JQ-FT in vivo, we studied effects on a syngeneic T-ALL mouse model carrying a NOTCH1 L1601P ΔPEST, a common mutation observed in the human disease. First, leukemia cells obtained from this model were treated with JQ-FT for 24 hours in vitro.
Though the JQ-FT conjugate has not, as yet, been optimized for pharmacologic properties, we are eager to explore the utility of the compound as an in vivo chemical probe, while assessing putative tolerability of folate-conjugated thapsigargins. We first established the maximal tolerated dose (MTD) of JQ-FT as 60 mg/kg/day in mice, as administered by daily intraperitoneal injection. […]

On to `C/C=C(/C)C(=O)O[C@H]1C(C)=C2C([C@@H]1OC(=O)CCCCCCC)[C@@](C)(OC(C)=O)C[C@H](OC(=O)CC[C@H](NC(=O)c1ccc(NCc3cnc4nc(N)[nH]c(=O)c4n3)cc1)C(=O)O)[C@@]1(O)[C@H]2OC(=O)[C@@]1(C)O` (stereo partly shown) [JQ-FT], for which the “detection of the conjugate in cell culture media and cell lysate” value in series [1] was “not detected in either cell culture media (24 h treatment) or cell lysate”. Further, in the series with T-ALL cell lines (T-ALL cell lines, 10 μM), the cell cycle result is listed as “G1 cell cycle arrest” and the “induction of apoptosis in T-ALL cell lines” value was “rapid induction of apoptosis”. In addition, the “effect on cell viability in FR-overexpressing cell lines” value in the series with T-ALL cell lines (cell lines overexpressing FR1 or FR2) is “greater effect on cell viability”. Besides, in the series with panel of cell lines, the “apoptosis as measured by Caspase” value is “apoptotic effect”. Further, in series [2] (10 μM JQ-FT, 24 hours), the “ICN1 expression in murine leukemia cells” value is “diminished”; the “transcription of NOTCH1 targets Hes1 and Dtx1” value is reported as “diminished”. In addition, the “proliferation of murine leukemia cells” value in series [2] (ex vivo treatment with JQ-FT) is “diminished the proliferation”. Also, in the series with NOTCH1 (T-ALL cell lines with HD mutations, Thap-OH at 1 μM), the “furin-processed transmembrane NOTCH1 subunit (TM-N1) level” value is given as “loss of trans-membrane NOTCH; also recorded: decrement of transmembrane NOTCH1”. Besides, in the series on NOTCH1 (T-ALL cell lines), the ICN1 level entry is given as “Loss of ICN1” and the “unprocessed full-length NOTCH1 (FL-N1) level” value is on record as “accumulation of full length NOTCH; also recorded: accumulation of full length NOTCH1”. In series [3] (60 mg/kg IP daily, five days), the “bone marrow infiltration by T-ALL (GFP+ leukemia cells)” value is given as “markedly inhibited”; the “leukemic infiltration in spleen and liver (histology)” value is “decrease of leukemic infiltration in spleen and liver; also recorded: Growth suppression of lymphoblasts”; the spleen weight entry is recorded as “reduction in spleen weight”; the tumor growth result was “evident decrease in tumor growth”. In series [3] (60 mg/kg, 5 days, splenic cell lysates, vs vehicle), the “ICN1 expression in T-ALL cells from treated animals” value is “reduced ICN1 expression”.
